Key:
[1] = tested on: STZ-NA induced diabetes mice model; experiment: In vivo antidiabetic effect in STZ-NA induced diabetes mice model; set-up: species or system CD1 mice; details: 100 mg/kg single dose, intragastric
Method: Glibenclamide was used as a positive control, in order to ensure that the damage over β-cells was partial and mice pancreas still produces insulin, that responds to a secretagogue such as sulfonylurea drug used in this work.
CD1 mice (20–25 g) were housed in groups of six (n = 6) under laboratory conditions. Before experimentation, all animals were fasted for 16 h with water ad libitum. All animal procedures were conducted in accordance with the Mexican Federal Regulations for Animal Experimentation and Care (SAGARPA, NOM-062-ZOO-1999), based on US National Institutes of Health Publication #85-23, revised 1985. Non-insulin-dependent diabetes mice model was induced in overnight fasted mice by a single i.p. injection of 100 mg/kg STZ, 15 min before the i.p. administration of 40 mg/kg of NA. Hyperglycaemia was established by the higher plasma glucose concentration, determined by glucometer after 2 weeks. The animals with glycaemia higher than 200 mg/dL were selected for the assay. The diabetic mice were separated into […] of six animals each (n = 6). Mice of experimental groups were administered with a suspension of the molecules 1–3 (100 mg/kg, prepared in 10% (v/v) tween 80). Control group mice were similarly treated with 10% tween 80. […] The samples of blood were collected from the caudal vein at 0, 1, 3, 5 and 7 h after administration of each compound. Blood glucose levels were estimated using a commercial glucometer. The percentage variation of glycemia for each group was calculated. Values are expressed as mean ± S.E.M. Statistical significance was estimated by ANOVA.

[2] = biological target: GPR40 (Homo sapiens, UniProt O14842); experiment: GPR40 agonist calcium flux assay in hGPR40/Gα16/HEK293 cells; details: for Emax at 100 µM: HEK293, read-out: Maximal Response % (100 μM)
Sequence of GPR40 (O14842 whole entry): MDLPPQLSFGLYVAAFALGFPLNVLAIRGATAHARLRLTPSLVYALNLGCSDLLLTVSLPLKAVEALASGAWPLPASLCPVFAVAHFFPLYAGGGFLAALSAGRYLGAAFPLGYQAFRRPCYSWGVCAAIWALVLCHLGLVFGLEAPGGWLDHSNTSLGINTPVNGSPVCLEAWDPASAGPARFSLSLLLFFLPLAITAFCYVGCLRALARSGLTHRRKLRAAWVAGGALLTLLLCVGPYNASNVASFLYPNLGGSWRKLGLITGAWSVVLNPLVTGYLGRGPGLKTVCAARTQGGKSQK
Method: Linoleic acid (LA), one of the endogenous ligands for GPR40, was designated as positive control.
This bioassay was previously described [2]. Briefly: About 4 × 10^4 h GPR40/HEK293 per well were seeded in 96-well plate. After culturing for 24 h, cells were loaded with 2 μmol/L Fluo-4 AM in Hanks’ balanced salt solution at 37 °C for 40 min.

[3] = tested on: GLUT-4; experiment: Relative mRNA expression of GLUT-4 in 3T3-L1 adipocytes; format: cell-based; details: 24 h treatment
From the text: 3T3-L1 fibroblasts were differentiated to the adipocyte phenotype in order to determine the action of compounds on PPARγ and GLUT-4 expression. […] The activation of PPARγ could reduce the glucose levels in diabetic patients due to insulin resistance reduction. […] Several evidences indicate that increased levels of GLUT-4 expression in skeletal muscle are critical for the regulation of glucose homeostasis.
Both assays were achieved as described elsewhere. Briefly: 3T3-L1 fibroblasts (9 × 10^5 cells per well) were cultured in 6-well plates in Dulbecco’s modified Eagle’s medium. After 2 days of confluence, the cells were differentiated to the adipocyte phenotype with 0.5 mM 3-isobutyl-1-methylxanthine, 0.25 μM dexamethasone acetate, and 0.8 μM insulin, for 48 h, followed by insulin alone for other 48 h. To determine the action of compounds on PPARγ and GLUT-4 expression, the cells were treated 24 h. RNA was isolated from cultured cells and two μg of total RNA were reverse-transcripted in a thermocycler. The enzyme was inactivated and finally samples were cooled. […] PCR was conducted and the threshold cycles (Ct) were measured in separate tubes and in duplicate. The ΔCt values were calculated in every sample for each gene of interest. Relative changes in the expression level of one specific gene (ΔΔCt) were calculated.

[4] = biological target: human recombinant AKR1B1 (Homo sapiens, UniProt P15121); experiment: Aldose reductase (AKR1B1) inhibition assay
Method: Human recombinant AKR1B1 was purified by electrophoretic homogeneity as previously described [24]. The enzyme activity was corroborated at 37 °C following the decrease of absorbance at 340 nm. […] IC50 values was determined by nonlinear regression analysis. For each curve, five different concentrations of compounds were analyzed [25].

Compound	EC50 [2] [µM]	Emax at 100 µM [2] [%]	Increase in GLUT-4 levels (mRNA expression) [3] [times]	further results
O=C(O)CCc1ccc(OCc2cccc(-c3ccccc3)c2)cc1 [Compound 1, 3-[4-(Biphenyl-3-ylmethoxy)phenyl]propanoic acid]	0.075 ± 0.02	98 ± 10	–	In vivo antidiabetic activity (in words) ([1]; STZ-NA diabetic mice): lack of in vivo activity
O=C(O)CCc1ccc(OCc2cccc3ccccc23)cc1 [Compound 2, 3-[4-(1-Naphthylmethoxy)phenyl]propanoic acid]	–	–	2 to 4	Decrease of blood glucose levels ([1]; 7 h after administration, STZ-NA diabetic mice): ~80%
N#Cc1ccccc1-c1ccc(COc2ccc(CCC(=O)O)cc2)cc1 [Compound 3, 3-{4-[(2′-Cyanobiphenyl-4-yl)methoxy]phenyl} propanoic acid]	–	–	2 to 4	Glucose lowering effect (variation of glycemia) ([1]; at 3 h): −20%; Glucose lowering effect (variation of glycemia) ([1]; at 5 h): −50%; Glucose lowering effect (variation of glycemia) ([1]; at 7 h): −60%
O=C(O)CCc1ccc(OCc2ccc3ccccc3n2)cc1 [Compound 4, 3-[4-(Quinolin-2-ylmethoxy)phenyl]propanoic acid]	~100	84	–	–
O=C(O)CCc1ccc(OCC(=O)Nc2nc3ccccc3s2)cc1 [Compound 5, 3-{4-[2-(1,3-Benzothiazol-2-ylamino)-2 oxoethoxy]phenyl}propanoic Acid]	> 100	9.9	–	IC50 [4]: 23.3 µM; GPR40 agonistic activity (in words) ([2]; calcium assay): inactive
CCCCC/C=C\C/C=C\CCCCCCCC(=O)O [LA, Linoleic acid, reference compound]	8.3 ± 1.7	100	–	–

Source: paper PMC6017591, “Design, Synthesis and in Combo Antidiabetic Bioevaluation of Multitarget Phenylpropanoic Acids” (Molecules : A Journal of Synthetic Chemistry and Natural …, 2018)
